For assay [1], the target named is T1, human AR (Homo sapiens, UniProt P10275).
T1 construct: expressed in transfected cells; host or cells: CV-1 cells (African green monkey kidney fibroblasts)
T1 sequence (P10275 1-920): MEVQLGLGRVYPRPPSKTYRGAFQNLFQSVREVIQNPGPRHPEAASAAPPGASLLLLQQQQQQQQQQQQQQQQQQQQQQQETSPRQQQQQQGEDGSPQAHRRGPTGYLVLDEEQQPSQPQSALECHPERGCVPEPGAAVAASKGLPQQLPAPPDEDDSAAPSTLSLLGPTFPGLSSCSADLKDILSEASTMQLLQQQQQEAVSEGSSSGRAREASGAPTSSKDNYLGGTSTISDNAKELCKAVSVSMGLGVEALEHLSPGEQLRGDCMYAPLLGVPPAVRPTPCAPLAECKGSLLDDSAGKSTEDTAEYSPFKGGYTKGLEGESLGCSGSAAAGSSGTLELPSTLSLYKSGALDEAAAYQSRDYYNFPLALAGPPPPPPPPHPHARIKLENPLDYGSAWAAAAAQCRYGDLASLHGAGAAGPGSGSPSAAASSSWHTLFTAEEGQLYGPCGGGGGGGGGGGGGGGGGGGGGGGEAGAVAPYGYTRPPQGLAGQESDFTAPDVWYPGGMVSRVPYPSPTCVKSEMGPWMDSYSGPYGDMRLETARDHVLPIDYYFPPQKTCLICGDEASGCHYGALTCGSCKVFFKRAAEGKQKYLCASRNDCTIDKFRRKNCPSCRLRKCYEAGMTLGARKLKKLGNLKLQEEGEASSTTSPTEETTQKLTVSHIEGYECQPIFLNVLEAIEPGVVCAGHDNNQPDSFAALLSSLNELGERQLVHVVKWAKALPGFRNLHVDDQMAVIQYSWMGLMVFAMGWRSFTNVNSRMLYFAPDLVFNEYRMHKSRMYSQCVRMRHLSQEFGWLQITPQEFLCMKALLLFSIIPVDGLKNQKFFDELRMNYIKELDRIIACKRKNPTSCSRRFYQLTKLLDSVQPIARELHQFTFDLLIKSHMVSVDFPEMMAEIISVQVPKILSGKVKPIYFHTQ
Briefly: cell-based. It is filed as cell-based. To be noted: for EC50: read-out: AR Agonist CV-1 Cells Potency; for AR Antagonist CV-1 Cells Efficacy: antagonist mode, DHT at its EC50, % of maximal inhibition, na = not active; for AR activity profile (in words): summary of Tables 1 and 2; for IC50: read-out: AR Antagonist CV-1 Cells Potency. The text has this:
The co-transfection assay provides a method for identifying functional agonists and partial agonists which mimic, or antagonists which inhibit, the effect of native hormones, and quantifying their activity for responsive IR proteins. In this regard, the co-transfection assay mimics an in vivo system in the laboratory. Importantly, activity in the co-transfection assay correlates very well with known in vivo activity, such that the co-transfection assay functions as a qualitative and quantitative predictor of a tested compounds in vivo pharmacology. See, e.g., T. Berger et al. 41 J. Steroid Biochem. Molec.
CV-1 cells (African green monkey kidney fibroblasts) were cultured in the presence of Dulbecco's Modified Eagle Medium (DMEM) supplemented with 10% charcoal resin-stripped fetal bovine serum then transferred to 96-well microtiter plates one day prior to transfection.
The reporter plasmid, MTV-LUC, contains the cDNA for firefly luciferase (LUC) under control of the mouse mammary tumor virus (MTV) long terminal repeat, a conditional promoter containing an androgen response element. See e.g., Berger et al. supra. In addition, pRS-β-Gal, coding for constitutive expression of E. coli β-galactosidase (β-Gal), was included as an internal control for evaluation of transfection efficiency and compound toxicity.
Three to four replicates were used for each sample.
After 40 hours, the cells were washed with PBS, lysed with a Triton X-100-based buffer and assayed for LUC and β-Gal activities using a luminometer or spectrophotometer, respectively. For each replicate, the normalized response (NR) was calculated as:
where β-Gal rate=β-Gal•1×10^−5/β-Gal incubation time.

Assay [2] has as its target T1, human AR. The assay can be described thus: cell-based. As to conditions: read-out: AR Binding Ki.
Assay [3] has as its system immature castrated male rat. Briefly: Immature castrated male rat model with testosterone silastic implant, ventral prostate and seminal vesicle weights. In kind it is in vivo. To be noted: for ED50: Rattus norvegicus, po, 72 h. From the text:
The activity of selected compounds of the present invention as AR antagonists was *~ investigated in an immature castrated male rat model. A recognized test of the antiandrogen activity of a given compound, as described in L. G. Hershberger et al., 83 Proc. Soc. Exptl. […] Similar approaches have been used in the rat and in hamsters. […] Dermatol.
The basis of this assay is the fact that male sexual accessory organs, such as the prostate and seminal vesicles, play an important role in reproductive function. […] See F. Labrie et al., 16 Clin. Invest. […] However, this is not a major pathway since, in both animals and humans, castration without concomitant adrenalectomy leads to almost complete involution of the prostate and seminal vesicles. […] See M. C. […] Since the male sex organs are the tissues most responsive to modulation by androgen activity, this model is used to determine the androgen-dependent growth of the sex accessory organs in immature castrated rats.
Immature male rats (50-60 g, 21 day-old Sprague-Dawley, Harlan) were castrated under metofane anesthesia. […] As a negative control, a group of castrated animals received empty 10 mm silastic implants. Animal groups were dosed for 3 days by oral gavage as follows:
At the end of the 3-day treatment, the animals were sacrificed, and the ventral prostates and seminal vesicles were collected and weighed. Organ weight data were normalized to body weight of each animal and expressed as mg/100 g body weight. Results were analyzed by analysis of variance followed by the Dunnett's test. Data were transformed to comply with the normality and variance homogeneity criteria required to utilize the analysis of variance and Dunnett's test. The following data transformations were used for the ventral prostate and seminal vesicle: square root and power 0.7 respectively. Thereafter, the data were fitted to a four-parameter logistic equation and potencies derived from the fitted estimates. The same data transformations were used for the equation-fitting phase of the data analysis.
The gain and loss of sexual organ weights reflect the changes of cell number (DNA content) and cell mass (protein content), depending upon the serum androgen concentrations. […] Therefore, measurement of organ wet weights is sufficient to indicate the bioactivity of androgens and androgen antagonists.

Where [4] appears, read: agonist mode, percent maximal response relative to reference agonist DHT, na = not active (efficacy < 10 and potency > 10,000).

Read-outs that look alike come from different tables or passages of the source.

In the case of `CC1CC(C)(C)n2oc(=O)c3c4[nH]c(=O)cc(C(F)(F)F)c4cc1c32` (stereo not drawn) [Compound 113, 1,10-[1,3-dihydro-3-oxo-(2,1-isoxazolyl)]-1,2,3,4-tetrahydro-2,2,4,10-tetramethyl-6-trifluoromethyl-8-pyridono[5,6-g]quinoline], the EC50 in assay [1] (agonist mode, na = not active (efficacy < 10 and potency > 10,000)) amounted to 0.245 µM. Also, the “AR Agonist CV-1 Cells Efficacy” value in assay [1] (setting [4]) was determined as 31%. Moreover, in assay [1], the “AR Antagonist CV-1 Cells Efficacy” value came to 48% and the “AR activity profile (in words)” value was “mixed AR agonists/antagonists”. Further, in assay [2], the Ki (in general, a dissociation constant, usually derived from enzyme kinetics or from competition with a known ligand) is 0.01 µM.
For the compound `CCC1CCN(C(C)=O)c2cc3[nH]c(=O)cc(C(F)(F)F)c3cc21` (racemic) [Compound 123, (R/S)-1-Acetyl-4-ethyl-1,2,3,4-tetrahydro-6-(trifluoromethyl)-8-pyridono[5,6-g]quinoline], in assay [1], the “AR Agonist CV-1 Cells Efficacy” value is on record as 91 ± 17% and the EC50 is 0.031 ± 0.002 µM. The Ki in assay [2] came out at 0.087 µM.
With `CCC1(CC)CCc2cc3c(C(F)(F)F)c(F)c(=O)[nH]c3cc2N1` [Compound 120, 2,2-Diethyl-7-fluoro-1,2,3,4-tetrahydro-6-trifluoromethyl-8-pyridono[5,6-g]quinoline], in assay [1], the “AR Agonist CV-1 Cells Efficacy” value is given as 18 ± 3%, the “AR Antagonist CV-1 Cells Efficacy” value came to 61 ± 5%, the EC50 came out at 0.171 ± 0.095 µM and the IC50 worked out at 0.017 ± 0.002 µM. In assay [2], the Ki is 0.156 ± 0.024 µM.
For `CC1(C)CCc2cc3c(C(F)(F)F)cc(=O)[nH]c3cc2N1O` [Compound 118, 1,2,3,4-Tetrahydro-1-hydroxy-2,2-dimethyl-6-trifluoromethyl-8-pyridono[5,6-g]quinoline], in assay [1], the “AR Antagonist CV-1 Cells Efficacy” value is listed as 70 ± 2 % and the IC50 came to 0.482 ± 0.179 µM. Also, in assay [2], the Ki came to 0.086 ± 0.029 µM.
`Cc1c2c(cc3c(C(F)(F)F)c(F)c(=O)[nH]c13)C(C)CC(C)(C)N2` (stereo not drawn) [Compound 115, 7-Fluoro-1,2,3,4-tetrahydro-2,2,4,10-tetramethyl-6-trifluoromethyl-8-pyridono[5,6-g]quinoline]: in assay [1], the “AR Antagonist CV-1 Cells Efficacy” value is reported as 87 ± 1%. In addition, in assay [2], the Ki stood at 0.107 µM.
Turning to `CCC1CCN([N+](=O)[O-])c2cc3[nH]c(=O)cc(C(F)(F)F)c3cc21` (racemic) [Compound 127, (R/S)-4-Ethyl-1,2,3,4-tetrahydro-1-nitro-6-(trifluoromethyl)-8-pyridono[5,6-g]quinoline], in assay [1], the “AR Agonist CV-1 Cells Efficacy” value is 56 ± 12% and the EC50 amounted to 0.085 ± 0.036 µM. Also, in assay [2], the Ki stood at 0.136 µM.
For the compound `CC1CC(C)(C)Nc2cc3[nH]c(=O)c(F)c(C(F)(F)F)c3cc21` (stereo not drawn) [Compound 112, 7-Fluoro-1,2,3,4-tetrahydro-2,2,4-trimethyl-6-trifluoromethyl-8-pyridono[5,6-g]quinoline], in assay [1], the “AR Agonist CV-1 Cells Efficacy” value came to 21 ± 6%, the “AR Antagonist CV-1 Cells Efficacy” value is given as 42 ± 10%, the EC50 was determined as 0.026 ± 0.015 µM and the IC50 came out at 0.02 ± 0.001 µM. The “AR activity profile (in words)” value in assay [1] was “highly selective AR antagonists”. The Ki in assay [2] worked out at 0.061 ± 0.016 µM.
For the compound `CCC1CCN(C(=O)C(F)(F)F)c2cc3[nH]c(=O)cc(C(F)(F)F)c3cc21` (racemic) [Compound 122, (R/S)-4-Ethyl-1,2,3,4-tetrahydro-1-(trifluoroacetyl)-6-(trifluoromethyl)-8-pyridono[5,6-g]quinoline], the “AR Agonist CV-1 Cells Efficacy” value in assay [1] (setting [4]) is 100 ± 17%. In addition, in assay [1], the EC50 came to 0.003 µM. For the same compound, the Ki in assay [2] came to 0.007 ± 0.002 µM.
Turning to `CC(O)(CS(=O)(=O)c1ccc(F)cc1)C(=O)Nc1ccc(C#N)c(C(F)(F)F)c1` (stereo not drawn) [Casodex], the ED50 (commonly the dose at which the effect has come halfway, by size or by number of responders) in assay [3] (read-out: Potency (ED50) Weighted Average ± SE, Seminal Vesicle Weight) was 7.8 ± 0.9 mg/kg; in assay [3] (read-out: Potency (ED50) Weighted Average ± SE, Ventral Prostate Weight), 7 ± 0.9 mg/kg. For the same compound, the “effect on ventral prostate and seminal vesicle weights (in words)” value in assay [3] (Tables 5 and 6) is on record as “dose-dependent decrease”.
As to `Cn1c(=O)c(F)c(C(F)(F)F)c2cc3c(cc21)NC(C)(C)CC3` [Compound 107, 7-Fluoro-1,2,3,4-tetrahydro-2,2,9-trimethyl-6-trifluoromethyl-8-pyridono[5,6-g]quinoline], in assay [1], the “AR Antagonist CV-1 Cells Efficacy” value was determined as 83 ± 3% and the IC50 worked out at 0.038 ± 0.01 µM. Besides, in assay [2], the Ki worked out at 0.11 ± 0.042 µM.
For `CC1=CC(C)(C)Nc2cc3[nH]c(=O)c(F)c(C(F)(F)F)c3cc21` [Compound 111, 7-Fluoro-1,2-dihydro-2,2,4-trimethyl-6-trifluoromethyl-8-pyridono[5,6-g]quinoline], in assay [1], the “AR Agonist CV-1 Cells Efficacy” value stood at 16 ± 2%, the “AR Antagonist CV-1 Cells Efficacy” value came out at 53 ± 5%, the EC50 came to 0.227 ± 0.059 µM and the IC50 worked out at 0.043 ± 0.008 µM. Moreover, in assay [1], the “AR activity profile (in words)” value was “mixed AR agonists/antagonists”. Moreover, the Ki in assay [2] came to 0.012 µM.
For `CC1(C)CCc2cc3c(C(F)F)c(F)c(=O)[nH]c3cc2N1` [Compound 106, 6-Difluoromethyl-7-fluoro-1,2,3,4-tetrahydro-2,2-dimethyl-8-pyridono[5,6-g]quinoline], in assay [1], the “AR Antagonist CV-1 Cells Efficacy” value stood at 78 ± 3% and the IC50 is 0.052 ± 0.014 µM. Moreover, in assay [2], the Ki was 0.073 ± 0.037 µM.
Take `CN1c2cc3c(cc2CCC1(C)C)c(C(F)(F)F)c(F)c(=O)n3C` [Compound 109, 7-Fluoro-1,2,3,4-tetrahydro-1,2,2,9-tetramethyl-6-trifluoromethyl-8-pyridono[5,6-g]quinoline]: in assay [1], the “AR Agonist CV-1 Cells Efficacy” value is 13 ± 8 %, the “AR Antagonist CV-1 Cells Efficacy” value was found to be 77 ± 4%, the EC50 came to 0.036 ± 0.045 µM and the IC50 stood at 0.015 ± 0.002 µM. For the same compound, the “AR activity profile (in words)” value in assay [1] is given as “highly selective AR antagonists”. Moreover, in assay [2], the Ki was 0.018 ± 0.007 µM.
As for `Cn1c(=O)cc(C(F)(F)F)c2cc3c(cc21)N(O)C(C)(C)CC3` [Compound 119, 1,2,3,4-Tetrahydro-1-hydroxy-2,2,9-trimethyl-6-trifluoromethyl-8-pyridono[5,6-g]quinoline], in assay [1], the “AR Antagonist CV-1 Cells Efficacy” value is reported as 40 ± 12% and the IC50 worked out at 1.57 ± 1.05 µM. Besides, the Ki in assay [2] was found to be 0.074 ± 0.029 µM.

(Values after US6534516B1, “Androgen receptor modulator compounds and methods” (Ligand Pharmaceuticals Incorporated, priority 1996, dated 2003).)
